Reference: ChEMBL document CHEMBL1124153, “Synthesis and renin inhibitory activity of angiotensinogen analogues having dehydrostatine, Leu psi [CH2S]Val, or Leu psi [CH2SO]Val at the P1-P1' cleavage site” (J Med Chem, 1988)

How the values were obtained:
Renin (Homo sapiens) = molecular target: T1, Renin (Homo sapiens) (UniProt P00797); experiment: Inhibitory potency against renin relative to H-Pro-His-Pro-Phe-His-Phe-Phe-Val-Tyr-D-Lys-OH peptide
T1 sequence (whole entry): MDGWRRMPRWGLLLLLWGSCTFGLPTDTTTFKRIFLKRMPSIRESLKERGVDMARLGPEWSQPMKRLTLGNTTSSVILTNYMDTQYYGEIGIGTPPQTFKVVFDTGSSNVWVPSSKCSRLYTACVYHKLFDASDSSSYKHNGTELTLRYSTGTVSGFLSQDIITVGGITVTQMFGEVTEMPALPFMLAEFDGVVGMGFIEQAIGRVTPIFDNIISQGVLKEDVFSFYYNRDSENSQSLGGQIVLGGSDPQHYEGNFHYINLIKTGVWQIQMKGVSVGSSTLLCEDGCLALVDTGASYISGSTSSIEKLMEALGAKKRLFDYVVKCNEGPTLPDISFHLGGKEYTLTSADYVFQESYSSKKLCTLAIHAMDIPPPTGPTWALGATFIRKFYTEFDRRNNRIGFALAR

Renin = molecular target: T2, Renin (Homo sapiens, UniProt P00797); experiment: In vitro inhibitory activity against renin from lyophilized human plasma; type: cell-free
T2 sequence (P00797 whole entry): T1 sequence (whole entry)

Relative potency (Renin (Homo sapiens)) | IC50 (Renin) [µM] | Compound
1.6 | 6 | CC[C@@H](C)[C@H](NC(=O)[C@@H](SC[C@H](CC(C)C)NC(=O)[C@H](Cc1c[nH]cn1)NC(=O)[C@H](Cc1ccccc1)NC(=O)[C@H]1CCCN1C(=O)[C@H](Cc1c[nH]cn1)NC(=O)[C@H]1CCCN1)C(C)C)C(=O)N[C@@H](Cc1c[nH]cn1)C(=O)N[C@H](CCCCN)C(=O)O
200 | 0.049 | CC[C@@H](C)[C@H](NC(=O)[C@@H](NC[C@H](CC(C)C)NC(=O)[C@H](Cc1c[nH]cn1)NC(=O)[C@H](Cc1ccccc1)NC(=O)[C@H]1CCCN1C(=O)[C@H](Cc1c[nH]cn1)NC(=O)[C@H]1CCCN1)C(C)C)C(=O)N[C@@H](Cc1c[nH]cn1)C(=O)N[C@H](CCCCN)C(=O)O
4 | 2.5 | CC[C@@H](C)[C@H](NC(=O)[C@H](C(C)C)[S+]([O-])C[C@H](CC(C)C)NC(=O)[C@H](Cc1c[nH]cn1)NC(=O)[C@H](Cc1ccccc1)NC(=O)[C@H]1CCCN1C(=O)[C@H](Cc1c[nH]cn1)NC(=O)[C@H]1CCCN1)C(=O)N[C@@H](Cc1c[nH]cn1)C(=O)N[C@H](CCCCN)C(=O)O (some centres not stated)
1.6 | – | CC[C@@H](C)[C@H](NC(=O)/C=C/[C@H](CC(C)C)NC(=O)[C@H](Cc1c[nH]cn1)NC(=O)[C@H](Cc1ccccc1)NC(=O)[C@H]1CCCN1C(=O)[C@H](Cc1c[nH]cn1)NC(=O)[C@H]1CCCN1)C(=O)N[C@@H](Cc1c[nH]cn1)C(=O)N[C@H](CCCCN)C(=O)O

The next lines start with the compound.

Compound | Relative potency (Renin (Homo sapiens)) | IC50 (Renin) [µM]
CC(C)[C@H](NC(=O)[C@H](Cc1ccccc1)NC(=O)[C@H](Cc1ccccc1)NC(=O)[C@H](Cc1c[nH]cn1)NC(=O)[C@H](Cc1ccccc1)NC(=O)[C@H]1CCCN1C(=O)[C@H](Cc1c[nH]cn1)NC(=O)[C@H]1CCCN1)C(=O)N[C@@H](Cc1ccc(O)cc1)C(=O)N[C@H](CCCCN)C(=O)O | 1 | –
CC[C@@H](C)[C@H](NC(=O)[C@H](Cc1ccccc1)NC(=O)[C@H](Cc1ccccc1)NC(=O)[C@H](Cc1c[nH]cn1)NC(=O)[C@H](Cc1ccccc1)NC(=O)[C@H]1CCCN1C(=O)[C@H](Cc1c[nH]cn1)NC(=O)[C@H]1CCCN1)C(=O)N[C@@H](Cc1c[nH]cn1)C(=O)N[C@H](CCCCN)C(=O)O | 0.6 | –
CC[C@@H](C)[C@H](NC(=O)[C@H](Cc1ccccc1)NC(=O)[C@H](Cc1ccccc1)NC(=O)[C@H](Cc1cnc[nH]1)NC(=O)[C@H](Cc1ccccc1)NC(=O)[C@H]1CCCN1C(=O)[C@H](Cc1cnc[nH]1)NC(=O)[C@H]1CCCN1)C(=O)N[C@@H](Cc1cnc[nH]1)C(=O)N[C@H](CCCCN)C(=O)O | – | 170
CC(C)[C@H](NC(=O)[C@H](Cc1ccccc1)NC(=O)[C@H](Cc1ccccc1)NC(=O)[C@H](Cc1cnc[nH]1)NC(=O)[C@H](Cc1ccccc1)NC(=O)[C@H]1CCCN1C(=O)[C@H](Cc1cnc[nH]1)NC(=O)[C@H]1CCCN1)C(=O)N[C@@H](Cc1ccc(O)cc1)C(=O)N[C@H](CCCCN)C(=O)O | – | 10
CC[C@@H](C)[C@H](NC(=O)/C=C/[C@H](CC(C)C)NC(=O)[C@H](Cc1cnc[nH]1)NC(=O)[C@H](Cc1ccccc1)NC(=O)[C@H]1CCCN1C(=O)[C@H](Cc1cnc[nH]1)NC(=O)[C@H]1CCCN1)C(=O)N[C@@H](Cc1cnc[nH]1)C(=O)N[C@H](CCCCN)C(=O)O | – | 6.2
